Test results from ChEMBL document CHEMBL1201862, “PubChem BioAssay data set” (2004).
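Cells were grown in 96-well plates and exposed to each compound for 48 hours at five concentrations; endpoints were interpolated linearly between bracketing concentrations, or set to the highest concentration if not reached. GI50 is the concentration that inhibits growth by half.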 Active and inactive are the calls of the source. Rule as the data show it: active = GI50 up to about 1.1 µM and inactive = higher.

Tests used:
Assay in all cases: NCI anticancer screen, dose series, 48 h
UACC-62 = test system: UACC-62
SNB-19 = test system: SNB-19
SK-MEL-28 = test system: SK-MEL-28
SW-620 = test system: SW-620
UO-31 = test system: UO-31
HL-60 = test system: HL-60
HOP-92 = test system: HOP-92
MDA-MB-435 = test system: MDA-MB-435
UACC-257 = test system: UACC-257
DU-145 = test system: DU-145
HCT-116 = test system: HCT-116
COLO 205 = test system: COLO 205
OVCAR-5 = test system: OVCAR-5
SF-295 = test system: SF-295
NCI-H522 = test system: NCI-H522
HCT-15 = test system: HCT-15
BT-549 = test system: BT-549
NCI/ADR-RES = test system: NCI/ADR-RES
SK-OV-3 = test system: SK-OV-3
OVCAR-8 = test system: OVCAR-8
MDA-MB-231 = test system: MDA-MB-231
786-0 = test system: 786-0
ACHN = test system: ACHN
K562 = test system: K562
HOP-62 = test system: HOP-62
LOX IMVI = test system: LOX IMVI
KM12 = test system: KM12
OVCAR-3 = test system: OVCAR-3
T47D = test system: T47D
SF-539 = test system: SF-539
SK-MEL-2 = test system: SK-MEL-2
CCRF-CEM = test system: CCRF-CEM
MOLT-4 = test system: MOLT-4
NCI-H460 = test system: NCI-H460
NCI-H226 = test system: NCI-H226
Hs-578T = test system: Hs-578T
Malme-3M = test system: Malme-3M
SK-MEL-5 = test system: SK-MEL-5
NCI-H23 = test system: NCI-H23
MDA-N = test system: MDA-N
SN12C = test system: SN12C
OVCAR-4 = test system: OVCAR-4
SR = test system: SR
SNB-75 = test system: SNB-75
MCF7 = test system: MCF7
HT-29 = test system: HT-29
PC-3 = test system: PC-3
TK-10 = test system: TK-10
EKVX = test system: EKVX
A549 = test system: A549
M14 = test system: M14
RXF 393 = test system: RXF 393
SF-268 = test system: SF-268
U-251 = test system: U-251
RPMI-8226 = test system: RPMI-8226
CAKI-1 = test system: CAKI-1
HCC 2998 = test system: HCC 2998
IGROV-1 = test system: IGROV-1
A498 = test system: A498

## CC(=O)Nc1ccc(N2C(=O)CS(=O)(=O)C2c2cccc(Oc3ccccc3)c2)cc1 (stereo not given)
UACC-62
  GI50: 13.4 µM (inactive)
SNB-19
  GI50: 18 µM (inactive)
SK-MEL-28
  GI50: 21.9 µM (inactive)
SW-620
  GI50: 28.9 µM (inactive)
UO-31
  GI50: 17.5 µM (inactive)
HL-60
  GI50: 23.5 µM (inactive)
HOP-92
  GI50: 13.8 µM (inactive)
MDA-MB-435
  GI50: 21.2 µM (inactive)
UACC-257
  GI50: 16.8 µM (inactive)
DU-145
  GI50: 33.7 µM (inactive)
HCT-116
  GI50: 20.1 µM (inactive)
COLO 205
  GI50: 17.2 µM (inactive)
OVCAR-5
  GI50: 17.6 µM (inactive)
SF-295
  GI50: 17 µM (inactive)
NCI-H522
  GI50: 17.2 µM (inactive)
HCT-15
  GI50: 17.3 µM
BT-549
  GI50: 16.8 µM (inactive)
NCI/ADR-RES
  GI50: 17.6 µM (inactive)
SK-OV-3
  GI50: 27.4 µM (inactive)
OVCAR-8
  GI50: 16.7 µM (inactive)
MDA-MB-231
  GI50: 17.4 µM (inactive)
786-0
  GI50: 17.1 µM (inactive)
ACHN
  GI50: 16.6 µM (inactive)
K562
  GI50: 18.8 µM (inactive)
HOP-62
  GI50: 19.3 µM (inactive)
LOX IMVI
  GI50: 15.7 µM (inactive)
KM12
  GI50: 17.2 µM (inactive)
OVCAR-3
  GI50: 17.5 µM (inactive)
T47D
  GI50: 15.9 µM (inactive)
SF-539
  GI50: 19.5 µM (inactive)
SK-MEL-2
  GI50: 19.2 µM (inactive)
CCRF-CEM
  GI50: 53.1 µM (inactive)
MOLT-4
  GI50: 29.7 µM (inactive)
NCI-H460
  GI50: 17.8 µM (inactive)
NCI-H226
  GI50: 17.2 µM (inactive)
Hs-578T
  GI50: 28.9 µM (inactive)
Malme-3M
  GI50: 20.4 µM (inactive)
SK-MEL-5
  GI50: 14.7 µM (inactive)
NCI-H23
  GI50: 18.5 µM (inactive)
MDA-N
  GI50: 16.8 µM (inactive)
SN12C
  GI50: 15.1 µM (inactive)
OVCAR-4
  GI50: 14.2 µM (inactive)
SR
  GI50: 20.3 µM (inactive)
SNB-75
  GI50: 19.4 µM (inactive)
MCF7
  GI50: 18.7 µM (inactive)
HT-29
  GI50: 19.1 µM (inactive)
PC-3
  GI50: 16.8 µM (inactive)
TK-10
  GI50: 20.4 µM (inactive)
EKVX
  GI50: 15.4 µM (inactive)
A549
  GI50: 20 µM (inactive)
M14
  GI50: 18 µM (inactive)
RXF 393
  GI50: 18.9 µM (inactive)
SF-268
  GI50: 20.2 µM (inactive)
U-251
  GI50: 17.7 µM (inactive)

## Clc1cc2ncn(C3CCCCO3)c2cc1Cl (stereo not given)
UACC-62
  GI50: 53.5 µM (inactive)
SNB-19
  GI50: > 100 µM (inactive)
SK-MEL-28
  GI50: 39.4 µM (inactive)
SW-620
  GI50: 53.7 µM (inactive)
UO-31
  GI50: 16.1 µM (inactive)
HL-60
  GI50: 30.1 µM (inactive)
MDA-MB-435
  GI50: 75.9 µM (inactive)
RPMI-8226
  GI50: 66.8 µM (inactive)
DU-145
  GI50: 81.8 µM (inactive)
HCT-116
  GI50: 51.9 µM (inactive)
COLO 205
  GI50: 77.3 µM (inactive)
OVCAR-5
  GI50: > 100 µM (inactive)
CAKI-1
  GI50: 39.4 µM (inactive)
SF-295
  GI50: 70.5 µM (inactive)
NCI-H522
  GI50: 4.7 µM (inactive)
HCT-15
  GI50: 63.2 µM
BT-549
  GI50: 22.2 µM (inactive)
NCI/ADR-RES
  GI50: 36.9 µM (inactive)
SK-OV-3
  GI50: > 100 µM (inactive)
OVCAR-8
  GI50: 56.6 µM (inactive)
MDA-MB-231
  GI50: 74.1 µM (inactive)
786-0
  GI50: 71.6 µM (inactive)
K562
  GI50: 46.2 µM (inactive)
HOP-62
  GI50: 69.8 µM (inactive)
HCC 2998
  GI50: 64.6 µM (inactive)
LOX IMVI
  GI50: 32.5 µM (inactive)
KM12
  GI50: 14.2 µM (inactive)
OVCAR-3
  GI50: 41 µM (inactive)
T47D
  GI50: 44.6 µM (inactive)
SF-539
  GI50: 96.4 µM (inactive)
SK-MEL-2
  GI50: > 100 µM (inactive)
CCRF-CEM
  GI50: 56.2 µM (inactive)
MOLT-4
  GI50: 33.9 µM (inactive)
NCI-H226
  GI50: 17.5 µM (inactive)
Hs-578T
  GI50: 23.6 µM (inactive)
Malme-3M
  GI50: > 100 µM (inactive)
SK-MEL-5
  GI50: 38.4 µM (inactive)
NCI-H23
  GI50: 70.3 µM (inactive)
MDA-N
  GI50: 65.8 µM (inactive)
SN12C
  GI50: 99.1 µM (inactive)
OVCAR-4
  GI50: 48.9 µM (inactive)
SR
  GI50: 28.1 µM (inactive)
SNB-75
  GI50: 11.7 µM (inactive)
MCF7
  GI50: 74 µM (inactive)
HT-29
  GI50: 35.9 µM (inactive)
PC-3
  GI50: 34.6 µM (inactive)
EKVX
  GI50: 20 µM (inactive)
IGROV-1
  GI50: 20.1 µM (inactive)
A549
  GI50: 47.8 µM (inactive)
M14
  GI50: 71.8 µM (inactive)
RXF 393
  GI50: 44.7 µM (inactive)
SF-268
  GI50: 34.6 µM (inactive)
U-251
  GI50: 39.5 µM (inactive)

## C#CCn1ncc2c(SC)ncnc21
UACC-62
  GI50: > 100 µM (inactive)
SNB-19
  GI50: > 100 µM (inactive)
SK-MEL-28
  GI50: > 100 µM (inactive)
SW-620
  GI50: > 100 µM (inactive)
UO-31
  GI50: > 100 µM (inactive)
HOP-92
  GI50: > 100 µM (inactive)
MDA-MB-435
  GI50: > 100 µM (inactive)
RPMI-8226
  GI50: > 100 µM (inactive)
UACC-257
  GI50: > 100 µM (inactive)
DU-145
  GI50: > 100 µM (inactive)
HCT-116
  GI50: > 100 µM (inactive)
COLO 205
  GI50: > 100 µM (inactive)
OVCAR-5
  GI50: > 100 µM (inactive)
CAKI-1
  GI50: > 100 µM (inactive)
SF-295
  GI50: > 100 µM (inactive)
NCI-H522
  GI50: > 100 µM (inactive)
HCT-15
  GI50: > 100 µM
BT-549
  GI50: > 100 µM (inactive)
NCI/ADR-RES
  GI50: > 100 µM (inactive)
SK-OV-3
  GI50: > 100 µM (inactive)
OVCAR-8
  GI50: > 100 µM (inactive)
MDA-MB-231
  GI50: > 100 µM (inactive)
786-0
  GI50: > 100 µM (inactive)
ACHN
  GI50: > 100 µM (inactive)
A498
  GI50: > 100 µM (inactive)
K562
  GI50: > 100 µM (inactive)
HOP-62
  GI50: > 100 µM (inactive)
HCC 2998
  GI50: > 100 µM (inactive)
LOX IMVI
  GI50: > 100 µM (inactive)
KM12
  GI50: > 100 µM (inactive)
OVCAR-3
  GI50: > 100 µM (inactive)
T47D
  GI50: 19 µM (inactive)
SF-539
  GI50: > 100 µM (inactive)
SK-MEL-2
  GI50: > 100 µM (inactive)
CCRF-CEM
  GI50: > 100 µM (inactive)
MOLT-4
  GI50: > 100 µM (inactive)
NCI-H460
  GI50: > 100 µM (inactive)
NCI-H226
  GI50: > 100 µM (inactive)
Hs-578T
  GI50: > 100 µM (inactive)
Malme-3M
  GI50: > 100 µM (inactive)
SK-MEL-5
  GI50: > 100 µM (inactive)
NCI-H23
  GI50: > 100 µM (inactive)
MDA-N
  GI50: > 100 µM (inactive)
SN12C
  GI50: > 100 µM (inactive)
OVCAR-4
  GI50: > 100 µM (inactive)
SR
  GI50: > 100 µM (inactive)
SNB-75
  GI50: 33.8 µM (inactive)
MCF7
  GI50: > 100 µM (inactive)
HT-29
  GI50: > 100 µM (inactive)
PC-3
  GI50: > 100 µM (inactive)
TK-10
  GI50: > 100 µM (inactive)
EKVX
  GI50: 66.4 µM (inactive)
IGROV-1
  GI50: > 100 µM (inactive)
A549
  GI50: > 100 µM (inactive)
M14
  GI50: > 100 µM (inactive)
RXF 393
  GI50: > 100 µM (inactive)
SF-268
  GI50: > 100 µM (inactive)
U-251
  GI50: > 100 µM (inactive)
